# Earlier results in patent publication US9827234B1, “Dose-dumping resistant controlled release dosage form” (OSMOTICA KERESKEDELMI ES SZOLGALTATO KFT, priority 2017, dated 2017).
# Columns and labels:
# [1] = 5 mg 3× daily, rapid release tablet
structure (smiles),measurement,setting,value
"COC(=O)C(c1ccccc1)C1CCCCN1 (centres unmarked) [Methylphenidate, methyl 2-phenyl-2-(piperidin-2-yl)acetate]",Cmax,[1],4.2 ± 1.0 ng/mL
same,Tmax,[1],6.5 ± 1.8 h
same,T½,[1],3.0 ± 0.5 h
same,enhance the bioavailability of MPH,"consuming alcohol (ethanol), Patrick et al. 2007",up to 40%
same,plasma half-life,in vivo,2 to 3 h
